Broadly, the TGI is the concentration giving total growth inhibition. The low end stands for more potent growth arrest, the high end for less potent growth arrest. For orientation: GI50 means the concentration that inhibits growth by half.

Several values for one entry are separate records, joined by “and”; a condition that tells them apart may be missing. Identical values can stand only once.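 Assay format: 96-well plates, 48-hour exposure. Here, GI50 denotes the concentration required for 50% inhibition of growth. TGI marks complete inhibition of growth.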

The record followed here is PubChem BioAssay (NCI).

Test in all cases: DTP human tumour cell line panel, 48 h
In experiment [1] the test system is A498 renal.
Experiment [2] relates to HCT-116 colon.
In experiment [3] the test system is SK-MEL-2 melanoma.
In experiment [4] the test system is SNB-19 CNS.
Experiment [5] concerns OVCAR-4 ovarian.
The test system of experiment [6] is COLO 205 colon.
In experiment [7] the test system is UACC-62 melanoma.
The subject of experiment [8] is NCI-H226 lung.
Experiment [9] has as its system OVCAR-8 ovarian.
In experiment [10] the test system is TK-10 renal.

`CCOc1ccc(/C=C/c2cc(OC)c(OC)c(OC)c2)cc1`: the TGI in experiment [1] is 30.4 µM; in experiment [2], 15.2 µM; in [3] it was 20.7 µM; in experiment [4], more than 83.6 µM; in experiment [5], more than 100 µM; in [6], 2.5 µM. In addition, the TGI in experiment [7] was more than 100 µM; in experiment [8], more than 26.1 µM; in experiment [9] it was more than 100 µM; in experiment [10], more than 100 µM.

As to `CC(=O)OCCOCNC(=S)N/N=C/c1cc([N+](=O)[O-])ccc1O`, the TGI in experiment [1], in [2], in experiment [3], in [4], in [5] and in experiment [6] was more than 100 µM throughout. Further, the TGI in experiment [7], in [8], in [9] and in [10] was more than 100 µM in each case.

`CCc1cnn2c(NCc3ccc[n+]([O-])c3)cc(N3CCCC[C@H]3CCO)nc12`: the concentration for 50% growth inhibition (GI50) in [1] is 0.0029 µM; in [2], < 0.01 µM and 0.00345 µM; in experiment [3], < 0.01 µM and 0.00315 µM; in experiment [4], < 0.0107 µM and 0.00366 µM; in experiment [5], < 0.0105 µM and 0.00798 µM; in experiment [6], < 0.01 µM and 0.00235 µM. For the same compound, the GI50 was < 0.01 µM and 0.00345 µM in [7]; < 0.0129 µM and 0.00689 µM in experiment [8]; < 0.01 µM and 0.00446 µM in [9]; < 0.0156 µM and 0.00916 µM in experiment [10]. Besides, the total growth inhibition concentration (TGI) in [1] is 0.00904 µM; in experiment [2], more than 100 µM; in [3], 0.0237 µM and 0.0107 µM; in experiment [4] it was more than 100 µM; in experiment [6], < 0.01 µM and 0.00586 µM; in experiment [7], 0.0307 µM and 0.0168 µM. The TGI in experiment [8] is 0.0395 µM; in [9], more than 100 µM; in experiment [10], 1.95 µM and > 2.07 µM.

With `Clc1cc(Cl)c(OCCCCCCN2CCNCC2)c(Cl)c1`, the GI50 in [1] is 9.35 µM; in experiment [2], 1.67 µM; in experiment [3], 5.52 µM; in [4], 3.87 µM; in experiment [5], 3.48 µM; in experiment [6] it was 1.82 µM. The GI50 was 2.09 µM in experiment [7], 12.3 µM in experiment [8], 3.36 µM in experiment [9] and 11.8 µM in experiment [10]. Further, the TGI was 22.6 µM in [1]; 3.19 µM in [2]; 18.1 µM in experiment [3]; 16.3 µM in experiment [4]; 15.1 µM in experiment [5]; 3.58 µM in [6]. The TGI in [7] amounted to 4.27 µM; in experiment [8] it was 30.8 µM; in experiment [9], 12.4 µM; in experiment [10], 24.5 µM.

Regarding `Cn1cc(-c2nc(-c3c[nH]c4ncccc34)cs2)c2ccccc21`, the GI50 in experiment [1] was 34.5 µM; in [2], 24.2 µM; in [3], 54.7 µM; in [4], 71.4 µM; in [5], 0.117 µM; in [6] it was 24.1 µM. Further, the GI50 in [7] was 30.5 µM; in experiment [8] it was 14.2 µM; in experiment [9], 38.2 µM; in experiment [10], 5.78 µM. Also, the TGI in experiment [1], in [2], in experiment [3], in [4], in [5] and in experiment [6] was more than 100 µM throughout. Besides, the TGI in experiment [7] was more than 100 µM; in experiment [8], more than 100 µM; in [9], more than 100 µM; in experiment [10], 78.3 µM.

As for `O=C(Cc1nc2ccccc2o1)C(=O)Nc1cccc(Cl)c1`, the concentration for total growth inhibition (TGI) in experiment [1], in [2], in experiment [3], in experiment [4], in experiment [5] and in experiment [6] was more than 100 µM each time. Also, the TGI in experiment [7], in experiment [8], in experiment [9] and in experiment [10] was more than 100 µM throughout.

On to `c1ccncc1`, for which the TGI in experiment [1], in [2], in experiment [3], in experiment [4], in experiment [5] and in experiment [6] was more than 100 µM throughout. Moreover, the TGI in [7], in [8], in [9] and in experiment [10] was more than 100 µM in each case.

`COc1cc(N2C(=O)[C@H](c3ccccc3)C2c2ccc(SC)cc2)cc(OC)c1OC` (stereo partly drawn): the GI50 in [1] is 0.0232 µM; in experiment [2], 0.0317 µM; in experiment [3], 0.0489 µM; in experiment [4] it was 0.0422 µM; in experiment [5] it was 0.0545 µM; in experiment [6], 0.0367 µM. In addition, the GI50 in experiment [7] is 0.0484 µM; in experiment [8], 0.0301 µM; in experiment [9], 0.0388 µM; in experiment [10] it was 0.638 µM. The TGI in [1] is 0.078 µM; in experiment [2], 1.17 µM; in experiment [3], more than 100 µM; in experiment [4] it was more than 100 µM; in experiment [5], more than 100 µM; in [6], 1.46 µM. In addition, the TGI was 8.86 µM in experiment [7], more than 100 µM in experiment [8], more than 100 µM in [9] and more than 100 µM in experiment [10].

With `O=C1CC(c2ccccc2)Cc2nc3ccc(Br)cc3cc21` (stereo not drawn), the GI50 in experiment [1] was 0.0377 µM; in experiment [2] it was 0.0509 µM; in [3], 0.283 µM; in experiment [4], 0.495 µM; in experiment [5] it was 6.93 µM; in experiment [6], 0.281 µM. Also, the GI50 in [7] was 0.26 µM; in [8], 0.908 µM; in [9], 0.4 µM; in [10], 24.2 µM. For the same compound, the TGI was 0.487 µM in [1]; more than 100 µM in [2]; more than 100 µM in experiment [3]; more than 100 µM in [4]; more than 100 µM in experiment [5]; 1.8 µM in [6]. Further, the TGI in experiment [7] is more than 100 µM; in experiment [8], more than 20.3 µM; in [9] it was more than 100 µM; in experiment [10], more than 100 µM.

For the compound `COC(=O)[C@]12CC[C@@H](C)[C@H](C)[C@@H]1C1=CC[C@@H]3[C@@]4(C)C[C@@H](OC(=O)/C=C/c5ccccc5)[C@H](O)[C@@](C)(CO)[C@@H]4[C@H](O)C[C@@]3(C)[C@]1(C)CC2`, the GI50 is 1.07 µM in experiment [1]; 1.95 µM in experiment [2]; 3.81 µM in experiment [3]; 3.51 µM in experiment [4]; 3.23 µM in [5]; 1.91 µM in experiment [6]. Further, the GI50 in [7] is 2.83 µM; in experiment [8], 2.56 µM; in experiment [9], 3.2 µM; in [10] it was 2.26 µM. For the same compound, the TGI in [1] is 4.83 µM; in experiment [2] it was 3.79 µM; in [3], 15.5 µM; in experiment [4] it was 16.6 µM; in experiment [5], 13.4 µM; in experiment [6], 4.12 µM. The total growth inhibition concentration (TGI) amounted to 11.4 µM in [7], 9.15 µM in [8], 11.5 µM in experiment [9] and 6.33 µM in [10].

`O=C(c1ccc(C(F)(F)F)c(Cl)c1)N(Cc1ccc(Cl)cc1)c1ccc(-c2cc(C(F)(F)F)[nH]n2)c(O)c1`: the GI50 is 1.04 µM in [1]; 0.705 µM in experiment [2]; 1.16 µM in experiment [3]; 1.61 µM in experiment [4]; 1.08 µM in experiment [5]; 0.865 µM in [6]. For the same compound, the GI50 is 0.8 µM in experiment [7], 1.08 µM in experiment [8], 1.2 µM in experiment [9] and 1.41 µM in experiment [10]. For the same compound, the concentration for total growth inhibition (TGI) in [1] was 2.66 µM; in experiment [2], 1.58 µM; in experiment [3], 3.13 µM; in experiment [4] it was 6.35 µM; in experiment [5] it was 4.87 µM; in experiment [6] it was 1.64 µM. The TGI in experiment [7] is 1.97 µM; in [8], 2.94 µM; in experiment [9], 3.91 µM; in experiment [10], 3.99 µM.

In the case of `Cn1cc(C2=C(c3cn(-c4ccccc4)c4ccccc34)C(=O)NC2=O)c2ccccc21`, the GI50 in experiment [1] was more than 16.2 µM; in [2], 11 µM; in [3], 9.14 µM; in [4], more than 25 µM; in [5], 10.4 µM; in [6], 11.6 µM. Besides, the GI50 in experiment [7] was 16.3 µM; in [8] it was more than 25 µM; in experiment [9] it was 19.5 µM; in [10] it was more than 25 µM. The TGI in [1], in experiment [2], in experiment [3], in experiment [4], in experiment [5] and in experiment [6] was more than 25 µM each time. Also, the concentration for total growth inhibition (TGI) in experiment [7], in experiment [8], in [9] and in experiment [10] was more than 25 µM in each case.

As for `COc1cc(/C=C2\CCC/C(=C\c3ccc(O)c(OC)c3)C2=O)ccc1O`, the GI50 was 1.81 µM in experiment [1]; 1.45 µM in experiment [2]; 1.96 µM in [3]; 2.46 µM in experiment [4]; 2.54 µM in experiment [5]; 3.61 µM in [6]. The GI50 in experiment [7] was 1.6 µM; in experiment [9] it was 2.49 µM; in [10], 2.8 µM. Also, the concentration for total growth inhibition (TGI) in experiment [1] was 13.5 µM and 5.34 µM; in [2], 5 µM and 2.75 µM; in [3] it was 12.7 µM and 4.94 µM; in experiment [4] it was 22.1 µM and 10.2 µM; in experiment [5], 43.5 µM and 10.6 µM; in experiment [6] it was 24.4 µM and 13.6 µM. Further, the TGI in experiment [7] is 5.32 µM and 4.06 µM; in experiment [8], 16.8 µM; in experiment [9], 3.39 µM and 11.1 µM; in [10], 37.2 µM and 11.6 µM.

As for `COc1ccc2c3c1OC1C(OC)(OC)C=C[C@@]4(Br)[C@@H](C2)N(CC2CC2)CC[C@]314` (stereo partly drawn), the total growth inhibition concentration (TGI) was more than 100 µM in experiment [1]; more than 100 µM in experiment [2]; more than 100 µM in experiment [3]; more than 100 µM in experiment [4]; more than 100 µM in [5]; 94.1 µM in experiment [6]. The TGI in experiment [7], in [8], in [9] and in experiment [10] was more than 100 µM each time.
